≈ marks a conversion by molar mass, not a printed value.
Key:
Caco-2 permeability = format: in vitro ADME, human; conditions: human, Caco-2
From the text: (§1) We tested both the absorptive (from the apical to basolateral compartments; A→BL) and secretory (from the basolateral to apical compartments; BL→A) permeabilities of our compound. We determined the amounts of compound transported at the specified time points and calculated the cumulative fractions [F (cum)] transported with respect to time according to the following equation [43]: F(cum)=∑^[CR(tk)−fCR(tk−1)].VR/CD.VD Where C is the concentration (μM), V is the volume (mL) of the receiver (R) or donor (D), tk is time point k, and f is the sample replacement factor calculated as f=(1−Vs/VR) , where VS is the volume of the sample (mL).
(§2) We determined the permeability coefficients as follows: Papp=(ΔF(cum)/Δt).(1/A).VD Where (ΔF(cum)/Δt) is the slope of the graph of F(cum) versus time (s), A is the area of the filter (cm^2), and VD is the volume of the donor compartment (mL).
(§3) We determined the active transport by calculating the uptake ratios and the intestinal efflux by calculating the efflux ratios using the following equations [8]: Uptake ratio=Papp(A→BL)/Papp(BL→A) Efflux ratio=Papp(BL→A)/Papp(A→BL) Where Papp(A→BL) is the absorptive permeability coefficient, and Papp(BL→A) is the secretory permeability coefficient.
(§4) The transport of our compounds through the Caco-2 cells was tested according to Hubatsch et al., 2007 [8]. Briefly, Caco-2 cells were seeded at a density of 2.6 × 10^5 cells/cm^2 onto Corning Transwell® polyester membrane inserts (1.2 cm^2 membrane diameter, 0.4 μm pore size, product #3460) in 12-well tissue culture plates and cultured in Dulbecco’s modified Eagle’s medium with high glucose (4500 mg/liter glucose) and L-glutamine (without pyruvate) supplemented with 10% FBS, 1% non-essential amino acids and 1% penicillin/streptomycin. Cells were incubated for at least 21 days at the specified conditions with the change of medium every two days. The TEER was measured using Millicell® ERS device for each insert after every change of medium to monitor the development of the cells monolayer. Cell monolayers with TEER values less than 300 Ω.cm^2 at the end of the maintenance period were not suitable for the experiment and discarded. The integrity of the cell monolayers were further confirmed by testing the phenol red permeability through the cells. The transport experiments were started by replacing the incubation culture media with the transport buffers with or without the tested compounds, the transport was tested in both directions (apical to basolateral and basolateral to apical). We used Hank’s balanced salt solution without phenol red as the transport medium buffered with either methanesulfonic acid (pH = 6.5) as the transport buffer in the apical compartment or buffered with HEPES and NaHCO3 (pH = 7.4) as the transport buffer in the basolateral compartment. NSC745885 was dissolved in the transport buffers with the aid of 1% DMSO to get final concentrations between 4–5 μM. Samples from the receiver compartments were withdrawn at different time intervals (0 min, 30 min, 45 min, 60 min, 75 min, 90 min, 120 min) and the amounts of transported drug were determined using the HPLC. After the transport experiments, the TEER was checked for every cell monolayer to assure that the monolayers were not compromised from the effect of the tested drug. The apparent permeabilities were calculated as mentioned in the previous section.

[1] = system: human intestinal Caco-2 cells; assay: Caco-2 permeability; format: in vitro ADME
From the text: as §1, §2, §3, §4

MGH-U1R cell line = system: MGH-U1R cell line; set-up: method as in PMID 25431950; conditions: MGH-U1R; cited from earlier work
MGH-U1 cells = system: MGH-U1 cells; set-up: method as in PMID 25431950; conditions: cited from earlier work
[2] = system: Mycobacterium tuberculosis H37Rv; assay: Antimycobacterial susceptibility, BACTEC MGIT 960 SIRE; format: cell-based

Compound | Papp A→B at 120 min (Caco-2 permeability; 4–5 μM, apical pH 6.5, basolateral pH 7.4, read-out: Absorptive permeability Papp(A→BL)) [×10⁻⁶ cm/s] | Papp B→A at 120 min (Caco-2 permeability; 4–5 μM, apical pH 6.5, basolateral pH 7.4, read-out: Secretory permeability Papp(BL→A)) [×10⁻⁶ cm/s] | efflux ratio at 120 min (Caco-2 permeability; Papp(BL→A)/Papp(A→BL)) | Permeability ranking [1] | Uptake ratio ([1]; Papp(A→BL)/Papp(BL→A)) | concentration that completely suppressed growth of the resistant cell line (MGH-U1R cell line) [µM] | concentration that inhibited the non-resistant cells (MGH-U1 cells) [µM] | Effect on M. tuberculosis H37Rv ([2]; 1.25 μg/mL) | Effect on M. tuberculosis H37Rv ([2]; 2.5 μg/mL) | Effect on M. tuberculosis H37Rv ([2]; 5 μg/mL) | Effect on M. tuberculosis H37Rv ([2]; 7.5 μg/mL) | Effect on M. tuberculosis H37Rv ([2]; 10 μg/mL) | Effect on M. tuberculosis H37Rv ([2]; 15 μg/mL) | Effect on M. tuberculosis H37Rv ([2]; 20 μg/mL) | MIC ([2]; Mycobacterium tuberculosis, 336 h, H37Rv, 14 days) [µg/mL]
O=C1c2ccccc2C(=O)c2c1ccc1nsnc21 [NSC745885, anthra[1,2-c][1,2,5]thiadiazole-6,11-dione] | 31.8 | 35.4 | 1.11 | High; completely absorbed | 0.898 | 2.5 | 2.5 | – | – | – | – | – | – | – | –
O=C1c2ccccc2C(=O)c2c1cc(Cl)c1nsnc21 [NSC757963] | – | – | – | – | – | – | – | Growth | Growth | Growth | Growth | Inhibition | Inhibition | Inhibition | 10 (≈ 33.3 µM)
